Experimental data from ChEMBL document CHEMBL1151241, “Sesquiterpenes and flavonol glycosides from Zingiber aromaticum and their CYP3A4 and CYP2D6 inhibitory activities” (J Nat Prod, 2004).

Key:
Cytochrome P450 3A4 = Cytochrome P450 3A4 (Homo sapiens, UniProt P08684); test: Inhibition of human CYP3A4 by radiometric assay; type: ADME
Cytochrome P450 2D6 = Cytochrome P450 2D6 (Homo sapiens, UniProt P10635); test: Inhibition of human CYP2D6 by radiometric assay; type: ADME
Chain of Cytochrome P450 2D6 (P10635 whole entry): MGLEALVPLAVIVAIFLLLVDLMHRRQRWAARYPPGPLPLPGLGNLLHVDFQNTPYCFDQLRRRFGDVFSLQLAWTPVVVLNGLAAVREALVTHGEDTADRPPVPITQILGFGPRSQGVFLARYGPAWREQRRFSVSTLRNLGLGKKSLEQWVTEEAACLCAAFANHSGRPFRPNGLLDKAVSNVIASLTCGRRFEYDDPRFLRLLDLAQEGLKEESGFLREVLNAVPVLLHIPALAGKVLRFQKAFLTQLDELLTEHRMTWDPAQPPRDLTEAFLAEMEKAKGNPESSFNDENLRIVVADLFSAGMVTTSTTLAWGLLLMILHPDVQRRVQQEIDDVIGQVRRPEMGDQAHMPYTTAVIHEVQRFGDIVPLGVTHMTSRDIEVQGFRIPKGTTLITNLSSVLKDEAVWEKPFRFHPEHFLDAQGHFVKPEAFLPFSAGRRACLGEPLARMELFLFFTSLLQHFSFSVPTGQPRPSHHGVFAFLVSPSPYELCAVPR

Chain of Cytochrome P450 3A4 (P08684 whole entry): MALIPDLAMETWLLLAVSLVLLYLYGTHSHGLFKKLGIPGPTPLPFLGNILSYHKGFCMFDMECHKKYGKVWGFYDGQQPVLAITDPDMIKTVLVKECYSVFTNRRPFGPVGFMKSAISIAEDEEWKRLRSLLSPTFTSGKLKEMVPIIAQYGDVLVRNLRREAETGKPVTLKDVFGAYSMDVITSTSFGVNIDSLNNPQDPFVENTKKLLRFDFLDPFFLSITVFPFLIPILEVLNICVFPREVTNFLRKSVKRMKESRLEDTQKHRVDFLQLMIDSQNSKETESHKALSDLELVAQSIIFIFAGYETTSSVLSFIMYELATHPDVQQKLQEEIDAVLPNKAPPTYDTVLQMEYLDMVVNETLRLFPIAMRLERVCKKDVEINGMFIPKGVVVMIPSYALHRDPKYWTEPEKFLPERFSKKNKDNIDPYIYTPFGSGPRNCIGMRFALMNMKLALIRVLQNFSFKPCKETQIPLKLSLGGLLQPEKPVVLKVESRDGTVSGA

Row | IC50 (Cytochrome P450 3A4) [µM] | IC50 (Cytochrome P450 2D6) [µM] | Compound
1 | 20.6 | 50.5 | CC(=O)O[C@@H]1[C@@H](OC(C)=O)[C@@H](O)[C@H](Oc2c(-c3ccc(O)cc3)oc3cc(O)cc(O)c3c2=O)O[C@H]1C
2 | 59 | > 100 | CC(=O)O[C@H]1[C@H](Oc2c(-c3ccc(O)cc3)oc3cc(O)cc(O)c3c2=O)O[C@@H](C)[C@H](O)[C@H]1O
3 | 35.5 | > 100 | C/C1=C\CC(C)(C)/C=C/C(=O)/C(C)=C/[C@H](O)C1
4 | 55.8 | > 100 | CC(=O)O[C@@H]1[C@@H](O)[C@H](C)O[C@@H](Oc2c(-c3ccc(O)cc3)oc3cc(O)cc(O)c3c2=O)[C@@H]1OC(C)=O
5 | 98.3 | > 100 | CC(=O)O[C@@H]1[C@@H](O)[C@H](C)O[C@@H](Oc2c(-c3ccc(O)cc3)oc3cc(O)cc(O)c3c2=O)[C@@H]1O
6 | 31.6 | > 100 | CC(=O)O[C@@H]1[C@@H](O)[C@@H](OC(C)=O)[C@H](Oc2c(-c3ccc(O)cc3)oc3cc(O)cc(O)c3c2=O)O[C@H]1C
7 | 62.5 | > 100 | C/C1=C\[C@H](O)C[C@@]2(C)O[C@@H]2CC(C)(C)/C=C/C1=O
8 | 42.6 | > 100 | C/C1=C\[C@H](O)C[C@]2(C)O[C@@H]2CC(C)(C)/C=C/C1=O
9 | 14.4 | 43.3 | CC(=O)O[C@@H]1[C@@H](OC(C)=O)[C@H](C)O[C@@H](Oc2c(-c3ccc(O)cc3)oc3cc(O)cc(O)c3c2=O)[C@@H]1OC(C)=O
10 | 21.8 | 45.5 | COc1ccc(-c2oc3cc(O)cc(O)c3c(=O)c2OC)cc1 [ERMANIN]
11 | 36.2 | 4.63 | COc1c(-c2ccc(O)cc2)oc2cc(O)cc(O)c2c1=O [ISOKAEMPFERIDE]
12 | 77.7 | > 100 | CCCCC/C=C/C(=O)CCc1ccc(O)c(OC)c1 [SHOGAOL]
13 | 48.4 | > 100 | C/C1=C\CC[C@@]2(C)O[C@@H]2CC(C)(C)/C=C/C1=O [ZERUMBONE EPOXIDE]
14 | 21.8 | > 100 | C/C1=C\CC(C)(C)/C=C/C(=O)/C(C)=C/CC1 [ZERUMBONE]
